Measured values: US6525001B1, “Substituted pyrimidine and pyridine herbicides” (Mid-American Commercialization Corporation, priority 1997, dated 2003)

How the values were obtained:
Assay type in all cases: in vivo
[1] = system: spring barley (Hordeum vulgare); assay: Test D; conditions: PREEMERGENCE
rape (Brassica napus) = assay: Test D; design: key: 0 is no effect; 100 is complete control; conditions: PREEMERGENCE
[2] = system: ivyleaf speedwell (Veronica hederaefolia); assay: Test D; design: key: 0 is no effect; 100 is complete control; conditions: PREEMERGENCE
[3] = system: barnyardgrass (Echinochloa crus-galli); assay: Test E pre-/postemergence/post directed; conditions: PREEMERGENCE
Summary of the method: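 Three application modes in greenhouse pots: preemergence soil spray, postemergence foliar spray at two to four leaves, and post-directed spray to soil and plant base. Ratings of 0–100 injury, assigned visually against untreated controls 13 to 21 days later.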

[4] = system: Italian ryegrass (Lolium multiflorum); assay: Test D; conditions: PREEMERGENCE
[5] = system: lambsquarters (Chenopodium album); assay: Test D; design: key: 0 is no effect; conditions: POSTEMERGENCE
Procedure: (§1) Compounds evaluated in this test were formulated in a non-phytotoxic solvent mixture which included a surfactant and applied to plants that were in the 1- to 4-leaf stage (postemergence application). A mixture of sandy loam soil and greenhouse potting mix in a 60:40 ratio was used for the postemergence test.
(§2) Plantings of these crops and weed species were adjusted to produce plants of appropriate size for the postemergence test. All plant species were grown using normal greenhouse practices. Crop and weed species include alfalfa (Medicago sativa), annual bluegrass (Poa annua), blackgrass (Alopecurus myosuroides), black nightshade (Solanum nigra), chickweed (Stellaria media), common poppy (Papaver rhoeas), deadnettle (Lamium amplexicaule), downy brome (Bromus tectorum), field violet (Viola arvensis), galium 2 (Galium aparine), green foxtail (Setaria viridis), Italian ryegrass (Lolium multiflorum), jointed goatgrass (Aegilops cylindrica), kochia (Kochia scoparia), lambsquarters (Chenopodium album), lentil (Lens culinaris), littleseed canarygrass (Phalaris minor), pea (Pisum sativum), potato (Solanum tuberosum), rape (Brassica napus), redroot pigweed (Amaranthus retroflexus), Russian thistle (Salsola kali), scentless chamomile (Matricaria inodora), sorghum (Sorghum vulgare), spring barley (Hordeum vulgare), sugar beet (Beta vulgaris), sunflower (Helianthus annuus), ivyleaf speedwell (Veronica hederaefolia), spring wheat (Triticum aestivum), winter wheat (Triticum aestivum), wild buckwheat (Polygonum convolvulus), wild mustard (Sinapis arvensis), wild oat (Avena fatua), windgrass (Apera spica-venti) and winter barley (Hordeum vulgare).
(§3) Treated plants and untreated controls were maintained in a greenhouse for approximately 21 to 28 days, after which all treated plants were compared to untreated controls and visually evaluated. Plant response ratings, summarized in Table D, are based upon a 0 to 100 scale where 0 is no effect and 100 is complete control. A dash response (−) means no test result.

kochia (Kochia scoparia) [6] = assay: Test D; design: key: 0 is no effect; 10 is complete control; conditions: POSTEMERGENCE
Procedure: as §1, §2, §3

[7] = system: galium 2 (Galium aparine); assay: Test D; design: key: 0 is no effect; 10 is complete control; conditions: POSTEMERGENCE
Procedure: as §1, §2, §3

[8] = system: redroot pigweed (Amaranthus retroflexus); assay: Test D; design: key: 0 is no effect; 10 is complete control; conditions: POSTEMERGENCE
Procedure: as §1, §2, §3

[9] = system: wild buckwheat (Polygonum convolvulus); assay: Test D; design: key: 0 is no effect; 10 is complete control; conditions: POSTEMERGENCE
Procedure: as §1, §2, §3

[10] = system: scentless chamomile (Matricaria inodora); assay: Test D; conditions: PREEMERGENCE
[11] = system: chickweed (Stellaria media); assay: Test D; conditions: PREEMERGENCE
[12] = system: wild buckwheat (Polygonum convolvulus); assay: Test D; conditions: PREEMERGENCE
[13] = system: annual bluegrass (Poa annua); assay: Test D; design: key: 0 is no effect; 100 is complete control; conditions: PREEMERGENCE
kochia (Kochia scoparia) [14] = assay: Test D; design: key: 0 is no effect; 100 is complete control; conditions: PREEMERGENCE
[15] = system: black nightshade (Solanum nigra); assay: Test D; design: key: 0 is no effect; 100 is complete control; conditions: PREEMERGENCE

For `Cc1cnc(-c2ccc(C(F)(F)F)cc2)nc1Cc1cccc(C(F)(F)F)c1` [Example 1, 5-methyl-2-[4-(trifluoromethyl)phenyl]-4-[[3-(trifluoromethyl)phenyl]methyl]pyrimidine], the “Plant response rating, Spring Barley” value ([1]; Rate 31 g/ha) was 10, the “Plant response rating, Spring Barley” value ([1]; Rate 62 g/ha) was 20 and the “Plant response rating, Spring Barley” value ([1]; Rate 125 g/ha) was 20. The “Plant response rating, Spring Barley” value ([1]; Rate 250 g/ha) was 40, the “Plant response rating, Rape” value (rape (Brassica napus); Rate 31 g/ha) was 30 and the “Plant response rating, Rape” value (rape (Brassica napus); Rate 62 g/ha) was 75. The “Plant response rating, Rape” value (rape (Brassica napus); Rate 125 g/ha) was 100, the “Plant response rating, Rape” value (rape (Brassica napus); Rate 250 g/ha) was 100 and the “Plant response rating, Ivyleaf speedwe” value ([2]; Rate 31 g/ha) was 50. For the same compound, the “Plant response rating, Ivyleaf speedwe” value ([2]; Rate 62 g/ha) was 100, the “Plant response rating, Ivyleaf speedwe” value ([2]; Rate 125 g/ha) was 100 and the “Plant response rating, Ivyleaf speedwe” value ([2]; Rate 250 g/ha) was 100. The “Plant response rating, Barnyardgrass” value ([3]; Rate 32 g/ha) was 5, the “Plant response rating, Barnyardgrass” value ([3]; Rate 64 g/ha) was 70 and the “Plant response rating, Barnyardgrass” value ([3]; Rate 125 g/ha) was 80. The “Plant response rating, I. Ryegrass” value ([4]; Rate 31 g/ha) was 10, the “Plant response rating, I. Ryegrass” value ([4]; Rate 62 g/ha) was 40 and the “Plant response rating, Lambsquarters” value ([5]; Rate 16 g/ha) was 0. The “Plant response rating, Lambsquarters” value ([5]; Rate 31 g/ha) was 60, the “Plant response rating, Lambsquarters” value ([5]; Rate 62 g/ha) was 60 and the “Plant response rating, Lambsquarters” value ([5]; Rate 125 g/ha) was 50. The “Plant response rating, Kochia” value (kochia (Kochia scoparia) [6]; Rate 16 g/ha) was 0, the “Plant response rating, Kochia” value (kochia (Kochia scoparia) [6]; Rate 31 g/ha) was 60 and the “Plant response rating, Kochia” value (kochia (Kochia scoparia) [6]; Rate 62 g/ha) was 80. The “Plant response rating, Kochia” value (kochia (Kochia scoparia) [6]; Rate 125 g/ha) was 70, the “Plant response rating, Galium” value ([7]; Rate 16 g/ha) was 0 and the “Plant response rating, Galium” value ([7]; Rate 31 g/ha) was 60. The “Plant response rating, Galium” value ([7]; Rate 62 g/ha) was 70, the “Plant response rating, Galium” value ([7]; Rate 125 g/ha) was 70 and the “Plant response rating, Redroot pigweed” value ([8]; Rate 16 g/ha) was 0. The “Plant response rating, Redroot pigweed” value ([8]; Rate 31 g/ha) was 70, the “Plant response rating, Redroot pigweed” value ([8]; Rate 62 g/ha) was 70 and the “Plant response rating, Redroot pigweed” value ([8]; Rate 125 g/ha) was 50. The “Plant response rating, Wild buckwheat” value ([9]; Rate 16 g/ha) was 0, the “Plant response rating, Wild buckwheat” value ([9]; Rate 31 g/ha) was 0 and the “Plant response rating, Wild buckwheat” value ([9]; Rate 62 g/ha) was 0. For the same compound, the “Plant response rating, Wild buckwheat” value ([9]; Rate 125 g/ha) was 20, the “Plant response rating, Scentless chamo” value ([10]; Rate 31 g/ha) was 30 and the “Plant response rating, Scentless chamo” value ([10]; Rate 62 g/ha) was 70. For the same compound, the “Plant response rating, Scentless chamo” value ([10]; Rate 125 g/ha) was 75, the “Plant response rating, Scentless chamo” value ([10]; Rate 250 g/ha) was 85 and the “Plant response rating, Chickweed” value ([11]; Rate 31 g/ha) was 55. The “Plant response rating, Chickweed” value ([11]; Rate 62 g/ha) was 85, the “Plant response rating, Chickweed” value ([11]; Rate 125 g/ha) was 85 and the “Plant response rating, Chickweed” value ([11]; Rate 250 g/ha) was 90. The “Plant response rating, Wild buckwheat” value ([12]; Rate 31 g/ha) was 40, the “Plant response rating, Wild buckwheat” value ([12]; Rate 62 g/ha) was 80 and the “Plant response rating, Wild buckwheat” value ([12]; Rate 125 g/ha) was 85. For the same compound, the “Plant response rating, Wild buckwheat” value ([12]; Rate 250 g/ha) was 85, the “Plant response rating, Annual bluegras” value ([13]; Rate 31 g/ha) was 75 and the “Plant response rating, Annual bluegras” value ([13]; Rate 62 g/ha) was 60. The “Plant response rating, Annual bluegras” value ([13]; Rate 125 g/ha) was 100, the “Plant response rating, Annual bluegras” value ([13]; Rate 250 g/ha) was 85 and the “Plant response rating, Kochia” value (kochia (Kochia scoparia) [14]; Rate 31 g/ha) was 40. For the same compound, the “Plant response rating, Kochia” value (kochia (Kochia scoparia) [14]; Rate 62 g/ha) was 100, the “Plant response rating, Kochia” value (kochia (Kochia scoparia) [14]; Rate 125 g/ha) was 100 and the “Plant response rating, Kochia” value (kochia (Kochia scoparia) [14]; Rate 250 g/ha) was 85. For the same compound, the “Plant response rating, Blk nightshade” value ([15]; Rate 31 g/ha) was 55, the “Plant response rating, Blk nightshade” value ([15]; Rate 62 g/ha) was 90 and the “Plant response rating, Blk nightshade” value ([15]; Rate 125 g/ha) was 100. The “Plant response rating, Blk nightshade” value ([15]; Rate 250 g/ha) was 100.
